Test results from US20070134231A1, “Method for prolonging activity of autodegradable enzymes and compositions thereof” (priority 2005, published 2007).
Structures can show the parent of a compound that is named as a salt. Where a SMILES comes first, the peptide text is derived from it.

B1: plasmin: serine proteinase, formulated in buffered acidified water (reversibly inactive acidified plasmin) (protein, UniProt P00747 20-580; P00747 581-810, looked up)
Plasmin heavy chain A: EPLDDYVNTQGASLFSVTKKQLGAGSIEECAAKCEEDEEFTCRAFQYHSKEQQCVIMAENRKSSIIIRMRDVVLFEKKVYLSECKTGNGKNYRGTMSKTKNGITCQKWSSTSPHRPRFSPATHPSEGLEENYCRNPDNDPQGPWCYTTDPEKRYDYCDILECEEECMHCSGENYDGKISKTMSGLECQAWDSQSPHAHGYIPSKFPNKNLKKNYCRNPDRELRPWCFTTDPNKRWELCDIPRCTTPPPSSGPTYQCLKGTGENYRGNVAVTVSGHTCQHWSAQTPHTHNRTPENFPCKNLDENYCRNPDGKRAPWCHTTNSQVRWEYCKIPSCDSSPVSTEQLAPTAPPELTPVVQDCYHGDGQSYRGTSSTTTTGKKCQSWSSMTPHRHQKTPENYPNAGLTMNYCRNPDADKGPWCFTTDPSVRWEYCNLKKCSGTEASVVAPPPVVLLPDVETPSEEDCMFGNGKGYRGKRATTVTGTPCQDWAAQEPHRHSIFTPETNPRAGLEKNYCRNPDGDVGGPWCYTTNPRKLYDYCDVPQCAAPSFDCGKPQVEPKKCPGR
Plasmin light chain B: VVGGCVAHPHSWPWQVSLRTRFGMHFCGGTLISPEWVLTAAHCLEKSPRPSSYKVILGAHQEVNLEPHVQEIEVSRLFLEPTRKDIALLKLSSPAVITDKVIPACLPSPNYVVADRTECFITGWGETQGTFGAGLLKEAQLPVIENKVCNRYEFLNGRVQSTELCAGHLAGGTDSCQGDSGGPLVCFEKDKYILQGVTSWGLGCARPNKPGVYVRVSRFVTWIEGVMRNN
modifications: Plasmin acidified formulation

test system: not given; assay: not given; conditions: buffered acidified water, 4° C.; cited from earlier work

Row | Molecule | storage stability
1 | B1 | stable for at least nine months

same assay, conditions: buffered acidified water, room temperature; cited from earlier work

Row | Molecule | storage stability
2 | B1 | stable for at least two months

test system: not given; assay: not given; conditions: at 25° C.; cited from earlier work

Row | Molecule | pKa
3 | O=S(=O)(O)CCNC(CO)(CO)CO [TES, N-tris{hydroxymethyl}-methyl-2-aminoethanesulfonic acid] | 7.4
4 | O=S(=O)(O)CC(O)CNC(CO)(CO)CO (stereo not shown) [TAPSO, 2-hydroxy-3{tris(hydroxymethyl)methylamino}-1-propanesulfonic acid] | 7.61
5 | O=S(=O)(O)CCNC1CCCCC1 [CHES] | 9.5
6 | 3-(N,N-bis{2-hydroxyethyl}amino)-2-hydroxypropane [DIPSO] | 7.52
7 | O=S(=O)(O)CCCCN1CCOCC1 [MOBS, 4-{N-morpholino}butanesulfonic acid] | 7.6

molecular target: T1, human plasmin (Homo sapiens, UniProt P00747); assay: Plasmin precipitation study in buffer solutions (PBS, pH of about 7.4); assay type: physicochemical; conditions: Test No. 9: ε-aminocaproic acid in combination with gelatin 0.3% (w/v), pH of about 7.4
T1 construct: which cleave a single-chain plasminogen molecule at the Arg^560 -Val^561 peptide bond, producing active plasmin; purchased Talecris, Inc. (Research Triangle Park, North Carolina)
Method: This acidified, lyophilized plasmin was reconstituted with 0.9% (by weight) NaCl solution to a concentration of 10 mg/ml. […] Combinations of ε-aminocaproic acid and gelatin or glycerin were also tested. The concentration of plasmin in the additive-containing buffer was 1 mg/ml.

Row | Molecule | Minimum Concentration of Additive Required to Prevent Visually Observed Plasmin Precipitation [mM]
8 | NCCCCCC(=O)O [ε-aminocaproic acid, reference compound] | 0.1

same assay, conditions: Test No. 10: glycerin in combination with 0.1 mM ε-aminocaproic acid, pH of about 7.4

Row | Molecule | Minimum Concentration of Additive Required to Prevent Visually Observed Plasmin Precipitation
9 | OCC(O)CO [glycerin] | 6% (v/v)

same assay, conditions: Test No. 10: ε-aminocaproic acid in combination with glycerin 6% (v/v), pH of about 7.4

Row | Molecule | Minimum Concentration of Additive Required to Prevent Visually Observed Plasmin Precipitation [mM]
10 | NCCCCCC(=O)O [ε-aminocaproic acid, reference compound] | 0.1

same assay, conditions: plasmin 1 mg/ml, observed within 2 hours

Row | Molecule | Concentration Range Tested That Did Not Prevent Precipitation at pH of About 7.4
11 | OC[C@H]1O[C@H](O[C@H]2O[C@H](CO)[C@@H](O)[C@H](O)[C@H]2O)[C@H](O)[C@@H](O)[C@@H]1O [trehalose] | 10%
12 | O=C(O)C(=O)O [oxalic acid] | 50 mM
13 | CC(O)CO (stereo not shown) [propylene glycol] | 2-20% v/v
14 | CSCC[C@H](N)C(=O)O [L-methionine] | 0.2%
15 | CN(C)CC(=O)O [N,N-dimethylglycine] | 0.5-1 M
16 | NCC(=O)O [glycine] | 0.1 M
17 | O=C(O)CCCCC(=O)O [adipic acid] | 50 mM
18 | O=S(=O)([O-])[O-].[Na+].[Na+] [sodium sulfate] | 0.3-0.6 M

same assay, conditions: single additive, pH of about 7.4, plasmin 1 mg/ml, observed within 2 hours

Row | Molecule | Minimum Concentration of Additive Required to Prevent Visually Observed Plasmin Precipitation
19 | C[N+](C)(C)CC(=O)O [betaine, (carboxymethyl)trimethylammonium inner salt] | 0.2 M
20 | NCCCC(=O)O [γ-aminobutyric acid] | 5 mM
21 | NCC(=O)NCC(=O)O [glycylglycine] (H-Gly-Gly-OH) | 10 mM
22 | CC(=O)N[C@@H](CCCNC(=N)N)C(=O)O [N-α-acetyl-L-arginine] | 50 mM
23 | NCCCCCC(=O)O [ε-aminocaproic acid, reference compound] | 1 mM
24 | OCC(O)CO [glycerin] | 10% (by weight)
25 | NCCCCC(=O)O [5-aminovaleric acid] | 1 mM
26 | OC[C@@H](O)[C@@H](O)[C@H](O)[C@@H](O)CO [D-sorbitol] | 12% (w/v)
27 | NC[C@H]1CC[C@H](C(=O)O)CC1 [tranexamic acid, trans-4-(aminomethyl)cyclohexanecarboxylic acid, reference compound] | 0.5 mM
28 | NCC(=O)NCC(=O)NCC(=O)O [triglycine] (H-Gly-Gly-Gly-OH) | 10 mM
29 | N=C(N)NCCC[C@H](N)C(=O)O [L-arginine] | 50 mM
30 | NCCCCCCC(=O)O [7-aminoheptanoic acid] | 5 mM
31 | CNCC(=O)O [sarcosine, N-methylglycine] | 1 M
